Reference: patent US20090176714A1, “METHOD OF REDUCING THE EFFECTS OF ABeta AND COMPOSITIONS THEREFORE” (priority 2004, published 2009)

Test system: hippocampal slice cultures
Experiment: Aβ-induced cell death (EthD-1/calcein AM, % Death) in organotypic hippocampal slice cultures
Format: cell-based, mouse
Procedure: Pups from C57B6/SJL mice were anaesthetized and decapitated at postnatal day 15. The brain was removed and placed in ice-cold dissecting medium (50% Minimum Essential Medium (Invitrogen, Carlsbad, Calif.), 50% Hank's Balanced Salt Solution (Invitrogen), 25 mM HEPES, and 36 mM glucose). Both hippocampi were dissected under a dissecting microscope and cut at 400 μm on a McIlwain tissue chopper. Slices were separated and placed on filter inserts with a 30 mm diameter and a 0.4 μm filter pore size (Millipore, Billerica, Mass.) held in 6-well culture plates. For the first 3 days, slices were kept in Neurobasal media with B-27 supplement, 1 mM glutamine, and 1% penicillin/streptomycin (Invitrogen). Subsequently, the media was changed every 3 days using media without antibiotics. Organotypic cultures were maintained in a humidified incubator at 37° C. in 5% O2 and 5% CO2 for 14 to 21 days.
Cell death and viability was determined on live slices using the fluorescent probes from Molecular Probes' Live/Dead Kit. After a 40 minute incubation in calcein AM (1:400) and ethidium homodimer (1:1000) in phosphate buffered saline, slices were visualized at 200× magnification with an inverted Nikon Diaphot 200 microscope using the Bio-Rad MRC-1024 Laser Scanning Confocal system (Hercules, Calif.). Random images of the neuronal fields were captured at the emission spectrum of each probe, and Scion Image software (Frederick, Md.) was used to quantify the number of live and dead cells. At least three areas including a neuronal field were imaged and used to determine the percent death for each slice. The percent death was calculated as the number of EthD-1 positive cells divided by the total number of EthD-1 and calcein AM positive cells.
β-amyloid1-42 and reverse Aβ (Aβ42-1) were obtained from BACHEM (Torrance, Calif.). These polypeptides were dissolved in 0.1% NH3OH at 222 μM. For treatments, Aβ was aggregated at 50 μM in Neurobasal media with B-27 supplement and 1 mM glutamine at 37° C. for 24 hours. Then, the slice culture media was removed, and the slices were treated with 1 mL of 25 μM or 50 μM Aβ, reverse Aβ, or vehicle for 24 hours. Human TTR (Calbiochem) or IGF-2 (Peprotech, Rocky Hill, N.J.) was added to slices together with the Aβ treatment at final concentrations of 3 μM (TTR) or 500 nM (IGF-2). sAPPα was prepared as described previously (Mattson et al., Neuron, 10:243-254 (1993)).
Unless otherwise stated, all sAPPα treatments were performed at 1 nM 48 hours prior to the addition of Aβ. Antibodies against TTR (C-20) or IGF-2 (F-20; 4 μg/mL; Santa Cruz) or sAPPα (6E10; 10 μg/mL; Chemicon) were added to slices together with the sAPPα treatment. Goat IgG (4 μg/mL; Santa Cruz) or mouse IgG1 (10 μg/mL; Chemicon) was added as a control. The 10 amino acid fragment of the carboxyl-terminal region of sAPPα (592-601 of APP695; SEVKMDAEFR; SEQ ID NO:1; Sigma) was added according to the same protocol for sAPPα.
SiRNA's were created based on the mouse mRNA sequences using the Ambion Silencer siRNA Construction Kit (Austin, Tex.). Several siRNA's were created by in vitro transcription for each silenced gene. Transfection was performed for 4 hours at 37° C. prior to vehicle or sAPPα treatment using 25 nM siRNA combined with the polyamines in the Ambion siPORT Amine Transfection Agent. Transfections were performed in Neurobasal media with 1 mM glutamine (Invitrogen). The successful mRNA target sequences are as follows, TTR: 5′-[…]-3′ (SEQ ID NO:16) and 5′-[…]-3′ (SEQ ID NO:17); IGF-2: 5′-AA-GGGGATAGAGATGTGAGAG-3′ (SEQ ID NO:18) and 5′-AAATTATGTGGT-AATTCTGCA-3′ (SEQ ID NO:19); IGF-1R: 5′-[…]-3′ (SEQ ID NO:20) and 5′-[…]-3′ (SEQ ID NO:21).
β-amyloid1-42 and reverse Aβ (Aβ42-1) were obtained from BACHEM (Torrance, Calif.). These peptides were dissolved in 0.1% NH3OH at 222 μM. For treatments, Aβ was aggregated at 50 μM in Neurobasal media with B-27 supplement and 1 mM glutamine at 37° C. for 24 hours. […]

[1] = 1 nM 48 hours prior to 25 μM Aβ (24 hours), FIG. 7

| Substance | Protection against Aβ-induced death (% Death) [1] | Protection against Aβ-induced death (% Death) (1 nM 48 h prior to 25 μM Aβ (24 h), FIG. 12A) | Protection against Aβ-induced death (% Death) (1 nM 48 h prior to 25 μM Aβ (24 h), FIG. 12A, listed as tetramer) | Protection against Aβ-induced death (% Death) (48 h prior to 25 μM Aβ (24 h), FIG. 12B, 1 nM, final concentration of 1 mM) | Protection against Aβ-induced death (% Death) (48 h prior to 25 μM Aβ (24 h), FIG. 12B, 1 nM, final concentration of 1 mM, listed as tetramer) | Protection against Aβ-induced death (% Death, EthD-1 positive cells) (1 nM added 48 hours prior to 25 μM or 50 μM Aβ (24 hours), FIG. 4A) | Percent death compared to treatment with vehicle (25 μM Aβ, 24 hours) | Neurons that lost membrane integrity (EthD-1 positive) / percent death (25 μM or 50 μM Aβ, 24 hours, compared to reverse Aβ) |
| --- | --- | --- | --- | --- | --- | --- | --- | --- |
| DAEF [peptide of 4 residues within the 10 residue peptide (residues 597-600)] | sufficient to protect | protects against the Aβ-induced toxicity | completely protected | protects against the Aβ-induced toxicity | completely protected | – | – | – |
| SEVKMDAEFR | completely protected | – | – | – | – | mimics the protective effect of sAPPα | – | – |
| β-amyloid1-42 [Aβ] | – | – | – | – | – | – | dramatic and significant increase | dramatic increase |
